The test has as its system MCH receptors. The test is described as follows: MCH receptor activity class (method not given). The following applies: activity class 1-3: percent of control at 10^-7 M or IC50.

Regarding `COCCOC(=O)NC[C@H]1CC[C@@H](Nc2nc3c(c(N(C)C)n2)CCCC3)CC1` [compound 1605], the class is on record as 3 (Class 3 The value of percent of control at 10^−7 M was more than 60% or the value of IC50 was more than 200 nM.).
Take `CCCCCCCCOC(=O)NC[C@H]1CC[C@@H](Nc2nc3c(c(N(C)C)n2)CCCC3)CC1` [compound 1606]: the class is 3 (Class 3 The value of percent of control at 10^−7 M was more than 60% or the value of IC50 was more than 200 nM.).
Under `CCOC(=O)NC[C@H]1CC[C@@H](Nc2nc3c(c(N(C)C)n2)CCCC3)CC1` [compound 1607] stands 3 (Class 3 The value of percent of control at 10^−7 M was more than 60% or the value of IC50 was more than 200 nM.).
For the compound `CN(C)c1nc(NC2CCC(CNC(=O)OCc3ccc([N+](=O)[O-])cc3)CC2)nc2c1CCCC2` (centres unmarked) [compound 1608], the class is listed as 3 (Class 3 The value of percent of control at 10^−7 M was more than 60% or the value of IC50 was more than 200 nM.).
For `CN(C)c1nc(N[C@H]2CC[C@@H](CNC(=O)Oc3ccc4ccccc4c3)CC2)nc2c1CCCC2` [compound 1609], the class is on record as 3 (Class 3 The value of percent of control at 10^−7 M was more than 60% or the value of IC50 was more than 200 nM.).
Consider `C=CCOC(=O)NC[C@H]1CC[C@@H](Nc2nc3c(c(N(C)C)n2)CCCC3)CC1` [compound 1610], for which the class is recorded as 3 (Class 3 The value of percent of control at 10^−7 M was more than 60% or the value of IC50 was more than 200 nM.).
Take `CN(C)c1nc(NC2CCC(CNC(=O)OCc3ccccc3)CC2)nc2c1CCCC2` (centres unmarked) [compound 1611]: the class is on record as 3 (Class 3 The value of percent of control at 10^−7 M was more than 60% or the value of IC50 was more than 200 nM.).
Turning to `CN(C)c1nc(N[C@H]2CC[C@@H](CNC(=O)Oc3ccccc3)CC2)nc2c1CCCC2` [compound 1612], the class is reported as 3 (Class 3 The value of percent of control at 10^−7 M was more than 60% or the value of IC50 was more than 200 nM.).
Under `CC(C)[C@@H]1CC[C@@H](C)CC1OC(=O)NC[C@H]1CC[C@@H](Nc2nc3c(c(N(C)C)n2)CCCC3)CC1` (some centres unmarked) [compound 1613] stands 3 (Class 3 The value of percent of control at 10^−7 M was more than 60% or the value of IC50 was more than 200 nM.); under `Cc1ccc(OC(=O)NC[C@H]2CC[C@@H](Nc3nc4c(c(N(C)C)n3)CCCC4)CC2)cc1` [compound 1614], 3 (Class 3 The value of percent of control at 10^−7 M was more than 60% or the value of IC50 was more than 200 nM.); under `COC(=O)NC[C@H]1CC[C@@H](Nc2nc3c(c(N(C)C)n2)CCCC3)CC1` [compound 1615], 3 (Class 3 The value of percent of control at 10^−7 M was more than 60% or the value of IC50 was more than 200 nM.).
Take `CN(C)c1nc(N[C@H]2CC[C@@H](CNC(=O)OCc3ccccc3Cl)CC2)nc2c1CCCC2` [compound 1616]: the class is recorded as 3 (Class 3 The value of percent of control at 10^−7 M was more than 60% or the value of IC50 was more than 200 nM.).
Under `CN(C)c1nc(N[C@H]2CC[C@@H](CNC(=O)OCC3c4ccccc4-c4ccccc43)CC2)nc2c1CCCC2` [compound 1617] stands 3 (Class 3 The value of percent of control at 10^−7 M was more than 60% or the value of IC50 was more than 200 nM.).
With `CN(C)c1nc(N[C@H]2CC[C@@H](CNC(=O)OCC(Cl)(Cl)Cl)CC2)nc2c1CCCC2` [compound 1618], the class is 3 (Class 3 The value of percent of control at 10^−7 M was more than 60% or the value of IC50 was more than 200 nM.).
Then `CN(C)c1ccnc(N[C@H]2CC[C@@H](NC(=O)OCCOCc3ccccc3)CC2)n1` [compound 1619], with 3 (Class 3 The value of percent of control at 10^−7 M was more than 60% or the value of IC50 was more than 200 nM.).
Under `CN(C)c1ccnc(N[C@H]2CC[C@@H](NC(=O)OCC(C)(C)C)CC2)n1` [compound 1620] stands 3 (Class 3 The value of percent of control at 10^−7 M was more than 60% or the value of IC50 was more than 200 nM.).
Take `COc1cc(COC(=O)NC2CCC(Nc3nccc(N(C)C)n3)CC2)c([N+](=O)[O-])cc1OC` (centres unmarked) [compound 1621, [4-(4-Dimethylamino-pyrimidin-2-ylamino)-cyclohexyl]-carbamid acid 4,5-dimethoxy-2-nitro-benzyl ester]: the class is recorded as 3 (Class 3 The value of percent of control at 10^−7 M was more than 60% or the value of IC50 was more than 200 nM.).
Consider `CN(C)c1ccnc(N[C@H]2CC[C@@H](NC(=O)Oc3cccc(C(F)(F)F)c3)CC2)n1` [compound 1622], for which the class is given as 3 (Class 3 The value of percent of control at 10^−7 M was more than 60% or the value of IC50 was more than 200 nM.).
With `CN(C)c1ccnc(N[C@H]2CC[C@@H](NC(=O)Oc3ccc(Br)cc3)CC2)n1` [compound 1623], the class is given as 3 (Class 3 The value of percent of control at 10^−7 M was more than 60% or the value of IC50 was more than 200 nM.).
Turning to `COc1ccccc1OC(=O)N[C@H]1CC[C@@H](Nc2nccc(N(C)C)n2)CC1` [compound 1624], the class was 3 (Class 3 The value of percent of control at 10^−7 M was more than 60% or the value of IC50 was more than 200 nM.).
As to `COCCOC(=O)N[C@H]1CC[C@@H](Nc2nccc(N(C)C)n2)CC1` [compound 1625], the class is given as 3 (Class 3 The value of percent of control at 10^−7 M was more than 60% or the value of IC50 was more than 200 nM.).
On to `CCCCCCCCOC(=O)N[C@H]1CC[C@@H](Nc2nccc(N(C)C)n2)CC1` [compound 1626], for which the class is 3 (Class 3 The value of percent of control at 10^−7 M was more than 60% or the value of IC50 was more than 200 nM.).
Consider `CCOC(=O)N[C@H]1CC[C@@H](Nc2nccc(N(C)C)n2)CC1` [compound 1627], for which the class is 3 (Class 3 The value of percent of control at 10^−7 M was more than 60% or the value of IC50 was more than 200 nM.).
In the case of `CN(C)c1ccnc(N[C@H]2CC[C@@H](NC(=O)OCc3ccc([N+](=O)[O-])cc3)CC2)n1` [compound 1628], the class is listed as 3 (Class 3 The value of percent of control at 10^−7 M was more than 60% or the value of IC50 was more than 200 nM.).
`CN(C)c1ccnc(N[C@H]2CC[C@@H](NC(=O)Oc3ccc4ccccc4c3)CC2)n1` [compound 1629]: the class is reported as 3 (Class 3 The value of percent of control at 10^−7 M was more than 60% or the value of IC50 was more than 200 nM.).
In the case of `C=CCOC(=O)N[C@H]1CC[C@@H](Nc2nccc(N(C)C)n2)CC1` [compound 1630], the class is listed as 3 (Class 3 The value of percent of control at 10^−7 M was more than 60% or the value of IC50 was more than 200 nM.).
In the case of `CN(C)c1ccnc(N[C@H]2CC[C@@H](NC(=O)OCc3ccccc3)CC2)n1` [compound 1631], the class is 3 (Class 3 The value of percent of control at 10^−7 M was more than 60% or the value of IC50 was more than 200 nM.).
Consider `CN(C)c1ccnc(N[C@H]2CC[C@@H](NC(=O)Oc3ccccc3)CC2)n1` [compound 1632], for which the class is 3 (Class 3 The value of percent of control at 10^−7 M was more than 60% or the value of IC50 was more than 200 nM.).
In the case of `CC(C)[C@@H]1CC[C@@H](C)CC1OC(=O)N[C@H]1CC[C@@H](Nc2nccc(N(C)C)n2)CC1` (some centres unmarked) [compound 1633], the class is listed as 3 (Class 3 The value of percent of control at 10^−7 M was more than 60% or the value of IC50 was more than 200 nM.).
Consider `Cc1ccc(OC(=O)N[C@H]2CC[C@@H](Nc3nccc(N(C)C)n3)CC2)cc1` [compound 1634], for which the class is recorded as 3 (Class 3 The value of percent of control at 10^−7 M was more than 60% or the value of IC50 was more than 200 nM.).
Turning to `COC(=O)N[C@H]1CC[C@@H](Nc2nccc(N(C)C)n2)CC1` [compound 1635], the class is listed as 3 (Class 3 The value of percent of control at 10^−7 M was more than 60% or the value of IC50 was more than 200 nM.).
Turning to `CN(C)c1ccnc(N[C@H]2CC[C@@H](NC(=O)OCc3ccccc3Cl)CC2)n1` [compound 1636], the class was 3 (Class 3 The value of percent of control at 10^−7 M was more than 60% or the value of IC50 was more than 200 nM.).
`CN(C)c1ccnc(N[C@H]2CC[C@@H](NC(=O)OCC3c4ccccc4-c4ccccc43)CC2)n1` [compound 1637]: the class is given as 3 (Class 3 The value of percent of control at 10^−7 M was more than 60% or the value of IC50 was more than 200 nM.).
Then `CN(C)c1ccnc(N[C@H]2CC[C@@H](NC(=O)OCC(Cl)(Cl)Cl)CC2)n1` [compound 1638], with 3 (Class 3 The value of percent of control at 10^−7 M was more than 60% or the value of IC50 was more than 200 nM.); and `CN(C)c1ccnc(N[C@H]2CC[C@@H](CNC(=O)OCCOCc3ccccc3)CC2)n1` [compound 1639], with 3 (Class 3 The value of percent of control at 10^−7 M was more than 60% or the value of IC50 was more than 200 nM.); and `CN(C)c1ccnc(N[C@H]2CC[C@@H](CNC(=O)OCC(C)(C)C)CC2)n1` [compound 1640], with 3 (Class 3 The value of percent of control at 10^−7 M was more than 60% or the value of IC50 was more than 200 nM.).
Under `COc1cc(COC(=O)NC[C@H]2CC[C@@H](Nc3nccc(N(C)C)n3)CC2)c([N+](=O)[O-])cc1OC` [compound 1641] stands 3 (Class 3 The value of percent of control at 10^−7 M was more than 60% or the value of IC50 was more than 200 nM.); under `CN(C)c1ccnc(N[C@H]2CC[C@@H](CNC(=O)Oc3cccc(C(F)(F)F)c3)CC2)n1` [compound 1642], 3 (Class 3 The value of percent of control at 10^−7 M was more than 60% or the value of IC50 was more than 200 nM.); under `CN(C)c1ccnc(N[C@H]2CC[C@@H](CNC(=O)Oc3ccc(Br)cc3)CC2)n1` [compound 1643], 3 (Class 3 The value of percent of control at 10^−7 M was more than 60% or the value of IC50 was more than 200 nM.).
Turning to `COc1ccccc1OC(=O)NC[C@H]1CC[C@@H](Nc2nccc(N(C)C)n2)CC1` [compound 1644], the class is 3 (Class 3 The value of percent of control at 10^−7 M was more than 60% or the value of IC50 was more than 200 nM.).
Take `COCCOC(=O)NC[C@H]1CC[C@@H](Nc2nccc(N(C)C)n2)CC1` [compound 1645]: the class is recorded as 3 (Class 3 The value of percent of control at 10^−7 M was more than 60% or the value of IC50 was more than 200 nM.).

The values are drawn from US20050197350A1, “Novel quinoline, tetrahydroquinazoline, and pyrimidine derivatives and methods of treatment related to the use thereof” (TAISHO PHARMACEUTICAL CO., LTD., priority 2003, published 2005).
